Patent US20200113852A1, “METHODS OF PATIENT SELECTION AND TREATING TRXR- OR PRDX-OVEREXPRESSED CANCERS” (TRIACT THERAPEUTICS, INC., priority 2017, published 2020)

Legend:
[1] = test system: HCT116 cells; experiment: Iniparib metabolites release, XLC-MS/MS of incubation media; assay type: in vitro ADME, human; set-up: unit not given beside the values
Experimental: (§1) Online solid phase extraction (SPE) was performed using the fully automated Spark Holland Symbiosis™ (Emmen, The Netherlands) in eXtraction Liquid Chromatography (XLC) mode. The Symbiosis™ has previously been described in detail (18). HySphere™ C18 HD 7 μm SPE cartridges were used (Spark Holland). Each cartridge was initially conditioned with 2 ml methanol+0.5% formic acid (FA) and then equilibrated with 2 ml water+0.5% FA, both at flow-rates of 4 ml/min. Sample (25 μl) was aspirated and loaded onto the cartridge with 1 ml water+0.5% FA at a flow-rate of 1 ml/min. […] After elution, the right clamp was washed successively with 2 ml water+0.5% FA, 2 ml methanol+0.5% FA and 2 ml water+0.5% FA at 4 ml/min. […] The mobile phase composition was returned to starting conditions over 1 min and maintained during 6 min for column equilibration. The total run time was 27 min. Mass spectrometry was performed using the Thermo® TSQ Quantum Discovery Max in electrospray positive ionization mode (Thermo, US) with the following parameters: capillary voltage=4.0 kV, capillary temperature=300° C., sheath gas pressure=40, auxiliary gas pressure=5.
(§2) All values are expressed as means±SEM of three independent experiments. ND., non detectable.

[2] = test system: MDA-MB-453 cells; experiment: as above; assay type: in vitro ADME, human; set-up: unit not given beside the values
Experimental: as §1, §2

[3] = test system: HCT116 cells; experiment: ROS production and video-microscopy (H2DCF); assay type: cell-based, human; settings: HCT116 loaded with H2DCF, 100 μM
Experimental: HCT116 cells pretreated or not for 20h with 1 mM BSO were loaded with 5 μM 2′,7′ dichloroflurescein diacetate (H2DCF). […] H2DCF fluorescence was excited with a LED light source (490 nm) and emitted light was collected at 520-550 nm. For video, H2DCF-loaded cells were washed with HBSS and kept for measurement in 2 μM H2DCF in HBSS.
For quantification the MetaMorph® software was used. ROIs were traced on representative cells and integrated fluorescence intensities were estimated. Values correspond to the average intensities of the ROIs and are expressed as the ratio F/FO, where F is the averaged intensity recorded at a given time and FO corresponds to an averaged intensity recorded on images captured before adding the compounds.

[4] = test system: newly diagnosed glioblastoma multiforme (GBM); experiment: Phase II clinical trial GBM, overall survival; assay type: in vivo, human
Source text: For assessing the efficacy of the treatment in terms of overall survival, the overall failure rate were estimated and compared to the failure rate of 0.6 per-person year of follow-up regarding the Phase III trial done by Stupp et al. in the same patient population treated with RT plus concomitant and adjuvant temozolomide.
The primary endpoint was death due to all causes. The survival time is defined from time of histological diagnosis to death occurrence. The overall failure rate was expressed as hazard of failure per person-year of follow-up. The total patient population for this part of the study was defined as all patients who have met the eligibility criteria, not met ineligibility criteria, and signed patient informed consent.
It yield above 90% power to detect a 30% reduction in hazard rate with observed hazard ratio of 0.7 (0.42 vs. 0.6) at an alpha level of 0.1 to be significant. The overall failure rate was estimated by dividing the number of events (deaths) by the total exposure time in the study cohort along with 95% confidence intervals. Survival probability and median time of survival was calculated using Kaplan-Meier method.

[5] = biological target: T1, TrxR1 (Homo sapiens, UniProt Q16881); experiment: In vitro Iniparib-biotin TrxR adduct formation on immunoprecipitated TrxR with or without NADPH; assay type: binding
T1 sequence (Q16881 1-499 isoform Q16881-5): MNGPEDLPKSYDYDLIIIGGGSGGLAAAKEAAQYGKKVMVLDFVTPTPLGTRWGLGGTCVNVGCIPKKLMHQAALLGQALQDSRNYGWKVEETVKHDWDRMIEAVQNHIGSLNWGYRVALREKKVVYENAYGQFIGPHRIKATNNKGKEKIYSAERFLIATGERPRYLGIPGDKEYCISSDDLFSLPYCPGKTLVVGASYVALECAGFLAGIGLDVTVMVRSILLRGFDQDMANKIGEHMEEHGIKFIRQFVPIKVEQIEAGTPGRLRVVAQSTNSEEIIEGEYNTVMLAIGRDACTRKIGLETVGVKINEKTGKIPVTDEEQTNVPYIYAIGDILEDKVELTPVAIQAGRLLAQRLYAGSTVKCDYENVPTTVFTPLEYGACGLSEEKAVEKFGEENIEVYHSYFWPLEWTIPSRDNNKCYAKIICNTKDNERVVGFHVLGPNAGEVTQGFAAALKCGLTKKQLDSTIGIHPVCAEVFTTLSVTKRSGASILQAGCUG

NC(=O)c1ccc(I)c([N+](=O)[O-])c1 [Iniparib, 4-iodo-3-nitrobenzamide]
Iniparib and metabolites in incubation media ([1]; HCT116 w BSO, 1 h after 100 μM Iniparib): 87.6 ± 3.5 | Iniparib and metabolites in incubation media ([1]; HCT116 w BSO, 5 h after 100 μM Iniparib): 84.5 ± 6.7 | Iniparib and metabolites in incubation media ([1]; HCT116 w BSO, 24 h after 100 μM Iniparib): 72.9 ± 7.4 | Iniparib and metabolites in incubation media ([1]; HCT116 w/o BSO, 1 h after 100 μM Iniparib): 59.2 ± 0.6 | Iniparib and metabolites in incubation media ([1]; HCT116 w/o BSO, 5 h after 100 μM Iniparib): 8.9 ± 0.4 | Iniparib and metabolites in incubation media ([2]; MDA-MB-453 w BSO, 1 h after 100 μM Iniparib): 91.4 ± 5.1 | Iniparib and metabolites in incubation media ([2]; MDA-MB-453 w BSO, 5 h after 100 μM Iniparib): 88.9 ± 10.2 | Iniparib and metabolites in incubation media ([2]; MDA-MB-453 w BSO, 24 h after 100 μM Iniparib): 74.2 ± 10.8 | Iniparib and metabolites in incubation media ([2]; MDA-MB-453 w/o BSO, 1 h after 100 μM Iniparib): 87.1 ± 1.3 | Iniparib and metabolites in incubation media ([2]; MDA-MB-453 w/o BSO, 5 h after 100 μM Iniparib): 64.0 ± 8.8 | Iniparib and metabolites in incubation media ([2]; MDA-MB-453 w/o BSO, 24 h after 100 μM Iniparib): 12.2 ± 4.3 | ROS production [3]: induced an increase in ROS production | 2 Year Survival ([4]; Phase 2, N = 76): 42.1 % patients | 3 Year Survival ([4]; Phase 2, N = 76): 23.7 % patients | reduced HR versus Stupp et al 2005 ([4]; single arm phase 2): ≥ 25%

O=C(CCCC[C@@H]1SC[C@@H]2NC(=O)N[C@@H]21)NCCNC(=O)c1ccc(I)c([N+](=O)[O-])c1 [Iniparib-biotin, 4-iodo-3-nitro-N-(2-(5-((3 aS,4S,6aR)-2-oxohexahydro-1H-thieno[3,4-d]imidazol-4-yl)pentanamido)ethyl)benzamide]
adduct formation with TrxR1 ([5]; NADPH provided): able to form adducts with TrxR1 to a large extent | covalent labeling of TrxR1 ([5]; absence of NADPH): almost no covalent labeling
